Test results: patent US20250333397A1 (REMIX THERAPEUTICS INC., priority 2021, published 2025)
Where two headings read alike, the source gives them in different places.

How the values were obtained:
Type in all cases: cell-based, human
MYB mRNA = assay: RT-qPCR splicing assay, MYB canonical (CJ) and alternative (AJ) junction mRNA; settings: Homo sapiens; for AC50: read-out: MYB AJ (AC50, increase in AJ mRNA)
Summary of the method: (§1)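 24 h compound exposure of A673 or K562 cells at 37 °C, 10 uM top final concentration, 3-fold steps, DMSO ≤0.25%. Splice-isoform levels determined by qPCR on cDNA from lysates, run at least in duplicate; values expressed as RQ normalized to GAPDH, GUSB or PPIA and DMSO.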

SMN2 mRNA = assay: RT-qPCR splicing assay panel, SMN2 canonical junction (CJ) mRNA; settings: Homo sapiens, Table 4B; gene panel; read-out: SMN2 (IC50, decrease in CJ mRNA levels)
Summary of the method: as §1

HTT mRNA = assay: RT-qPCR splicing assay, HTT canonical (CJ) and alternative (AJ) junction mRNA; settings: Homo sapiens; for AC50: read-out: HTT AJ (AC50, increase in AJ mRNA)
Summary of the method: as §1

Target C mRNA = assay: RT-qPCR splicing assay panel, Target C canonical junction (CJ) mRNA; settings: Homo sapiens, Table 4B; gene panel; read-out: Target C (IC50, decrease in CJ mRNA levels)
Summary of the method: as §1

[1] = 24 h, Table 3B, A673 or K562 cells, 24 h treatment
[2] = 24 h, Table 3B, A673 or K562 cells, 24 h treatment, read-out: MYB CJ (IC50, decrease in CJ mRNA)
[3] = Table 4B, gene panel, read-out: MYB (IC50, decrease in CJ mRNA levels)
[4] = 24 h, Table 3B, A673 or K562 cells, 24 h treatment, read-out: HTT CJ (IC50, decrease in CJ mRNA)
[5] = Table 4B, gene panel, read-out: HTT (IC50, decrease in CJ mRNA levels)

Cc1nc2cc(O)c(-c3ccc(N4CC[C@H](NC(C)(C)C)C4)nn3)cc2o1 [Compound 813]
0.1 to 1 µM: IC50 (SMN2 mRNA) | IC50 (HTT mRNA; [4]) | IC50 (HTT mRNA; [5])
1 to 10 µM: AC50 (MYB mRNA; [1]) | IC50 (MYB mRNA; [2]) | IC50 (MYB mRNA; [3]) | AC50 (HTT mRNA; [1]) | IC50 (Target C mRNA)

Cc1ccc2cc(-c3ccc(N4CCC(NC(C)(C)C)C4)nn3)c(O)cc2n1 (centres unmarked) [Compound 817]
> 10 µM: AC50 (MYB mRNA; [1]) | IC50 (MYB mRNA; [2]) | IC50 (MYB mRNA; [3]) | AC50 (HTT mRNA; [1]) | IC50 (HTT mRNA; [4]) | IC50 (HTT mRNA; [5]) | IC50 (Target C mRNA)
1 to 10 µM: IC50 (SMN2 mRNA)

Cc1ncc2cc(-c3ccc(N4CCC(NC(C)(C)C)C4)nn3)c(O)cc2n1 (centres unmarked) [Compound 818]
> 10 µM: AC50 (MYB mRNA; [1]) | IC50 (MYB mRNA; [2]) | IC50 (MYB mRNA; [3]) | IC50 (SMN2 mRNA) | AC50 (HTT mRNA; [1]) | IC50 (HTT mRNA; [4]) | IC50 (HTT mRNA; [5]) | IC50 (Target C mRNA)

COc1cc2cc(-c3ccc(N4CCC(NC(C)(C)C)C4)nn3)c(O)cc2nn1 (centres unmarked) [Compound 819]
1 to 10 µM: AC50 (MYB mRNA; [1]) | IC50 (MYB mRNA; [2]) | IC50 (MYB mRNA; [3]) | AC50 (HTT mRNA; [1]) | IC50 (HTT mRNA; [4]) | IC50 (HTT mRNA; [5]) | IC50 (Target C mRNA)
0.1 to 1 µM: IC50 (SMN2 mRNA)

CC(C)(C)NC1CCN(c2ccc(-c3cc4oc(CC#N)nc4cc3O)nn2)C1 (centres unmarked) [Compound 820]
< 0.1 µM: IC50 (SMN2 mRNA)
0.1 to 1 µM: AC50 (MYB mRNA; [1]) | AC50 (HTT mRNA; [1]) | IC50 (HTT mRNA; [4]) | IC50 (HTT mRNA; [5])
1 to 10 µM: IC50 (MYB mRNA; [2]) | IC50 (MYB mRNA; [3]) | IC50 (Target C mRNA)

Cc1nc2cc(O)c(-c3ccc(N4CCC(NC5CCC5)C4)nn3)cc2o1 (centres unmarked) [Compound 830]
> 10 µM: AC50 (MYB mRNA; [1]) | IC50 (MYB mRNA; [2]) | IC50 (MYB mRNA; [3]) | IC50 (SMN2 mRNA) | AC50 (HTT mRNA; [1]) | IC50 (HTT mRNA; [4]) | IC50 (HTT mRNA; [5]) | IC50 (Target C mRNA)

Cc1nc2ccc(-c3ccc(N4CCC(NC(C)(C)C)C4)nn3)nc2o1 (centres unmarked) [Compound 832]
< 0.1 µM: IC50 (SMN2 mRNA) | IC50 (HTT mRNA; [4]) | IC50 (HTT mRNA; [5])
0.1 to 1 µM: AC50 (MYB mRNA; [1]) | IC50 (MYB mRNA; [2]) | IC50 (MYB mRNA; [3]) | AC50 (HTT mRNA; [1]) | IC50 (Target C mRNA)

Cc1nc2cc(O)c(-c3ccc(N4CCC(NC(C)(C)C(C)(C)C)C4)nn3)cc2o1 (centres unmarked) [Compound 835]
0.1 to 1 µM: AC50 (MYB mRNA; [1]) | IC50 (MYB mRNA; [2]) | IC50 (MYB mRNA; [3]) | IC50 (SMN2 mRNA) | AC50 (HTT mRNA; [1]) | IC50 (HTT mRNA; [4]) | IC50 (HTT mRNA; [5]) | IC50 (Target C mRNA)

CCC(C)(C)NC1CCN(c2ccc(-c3cc4oc(C)nc4cc3O)nn2)C1 (centres unmarked) [Compound 836]
0.1 to 1 µM: IC50 (SMN2 mRNA) | IC50 (HTT mRNA; [4]) | IC50 (HTT mRNA; [5])
1 to 10 µM: AC50 (MYB mRNA; [1]) | IC50 (MYB mRNA; [2]) | IC50 (MYB mRNA; [3]) | AC50 (HTT mRNA; [1]) | IC50 (Target C mRNA)

Cc1nc2cc(O)c(-c3ccc(N4CCC(C)(NC(C)(C)C)C4)nn3)cc2o1 (centres unmarked) [Compound 837]
0.1 to 1 µM: IC50 (SMN2 mRNA) | IC50 (HTT mRNA; [4]) | IC50 (HTT mRNA; [5])
1 to 10 µM: AC50 (MYB mRNA; [1]) | IC50 (MYB mRNA; [2]) | IC50 (MYB mRNA; [3]) | AC50 (HTT mRNA; [1]) | IC50 (Target C mRNA)

Cc1nc2c(F)c(O)c(-c3ccc(N4CC[C@H](NC(C)(C)C)C4)nn3)cc2o1 [Compound 843]
> 10 µM: AC50 (MYB mRNA; [1]) | IC50 (MYB mRNA; [2]) | IC50 (MYB mRNA; [3]) | IC50 (SMN2 mRNA) | AC50 (HTT mRNA; [1]) | IC50 (HTT mRNA; [4]) | IC50 (HTT mRNA; [5]) | IC50 (Target C mRNA)

CC(C)(C)NC1CCN(c2ccc(-c3cc4ccncc4cc3O)nn2)C1 (centres unmarked) [Compound 845]
0.1 to 1 µM: AC50 (MYB mRNA; [1]) | IC50 (MYB mRNA; [2]) | IC50 (MYB mRNA; [3]) | IC50 (Target C mRNA)
< 0.1 µM: IC50 (SMN2 mRNA) | AC50 (HTT mRNA; [1]) | IC50 (HTT mRNA; [4]) | IC50 (HTT mRNA; [5])

Cc1nc2cc(O)c(-c3cnc(N4CC[C@@H](N(C)C(C)(C)C)C4)nn3)cc2o1 [Compound 856]
1 to 10 µM: AC50 (MYB mRNA; [1]) | IC50 (MYB mRNA; [2]) | IC50 (MYB mRNA; [3]) | AC50 (HTT mRNA; [1]) | IC50 (Target C mRNA)
0.1 to 1 µM: IC50 (SMN2 mRNA) | IC50 (HTT mRNA; [4]) | IC50 (HTT mRNA; [5])
